The target of one assay is T1, Full length Human HDAC6 (Homo sapiens, UniProt Q9UBN7).
T1 construct: Full length Human HDAC6; FLAG (C); host or cells: baculovirus expression system
T1 sequence (Q9UBN7 1-1215): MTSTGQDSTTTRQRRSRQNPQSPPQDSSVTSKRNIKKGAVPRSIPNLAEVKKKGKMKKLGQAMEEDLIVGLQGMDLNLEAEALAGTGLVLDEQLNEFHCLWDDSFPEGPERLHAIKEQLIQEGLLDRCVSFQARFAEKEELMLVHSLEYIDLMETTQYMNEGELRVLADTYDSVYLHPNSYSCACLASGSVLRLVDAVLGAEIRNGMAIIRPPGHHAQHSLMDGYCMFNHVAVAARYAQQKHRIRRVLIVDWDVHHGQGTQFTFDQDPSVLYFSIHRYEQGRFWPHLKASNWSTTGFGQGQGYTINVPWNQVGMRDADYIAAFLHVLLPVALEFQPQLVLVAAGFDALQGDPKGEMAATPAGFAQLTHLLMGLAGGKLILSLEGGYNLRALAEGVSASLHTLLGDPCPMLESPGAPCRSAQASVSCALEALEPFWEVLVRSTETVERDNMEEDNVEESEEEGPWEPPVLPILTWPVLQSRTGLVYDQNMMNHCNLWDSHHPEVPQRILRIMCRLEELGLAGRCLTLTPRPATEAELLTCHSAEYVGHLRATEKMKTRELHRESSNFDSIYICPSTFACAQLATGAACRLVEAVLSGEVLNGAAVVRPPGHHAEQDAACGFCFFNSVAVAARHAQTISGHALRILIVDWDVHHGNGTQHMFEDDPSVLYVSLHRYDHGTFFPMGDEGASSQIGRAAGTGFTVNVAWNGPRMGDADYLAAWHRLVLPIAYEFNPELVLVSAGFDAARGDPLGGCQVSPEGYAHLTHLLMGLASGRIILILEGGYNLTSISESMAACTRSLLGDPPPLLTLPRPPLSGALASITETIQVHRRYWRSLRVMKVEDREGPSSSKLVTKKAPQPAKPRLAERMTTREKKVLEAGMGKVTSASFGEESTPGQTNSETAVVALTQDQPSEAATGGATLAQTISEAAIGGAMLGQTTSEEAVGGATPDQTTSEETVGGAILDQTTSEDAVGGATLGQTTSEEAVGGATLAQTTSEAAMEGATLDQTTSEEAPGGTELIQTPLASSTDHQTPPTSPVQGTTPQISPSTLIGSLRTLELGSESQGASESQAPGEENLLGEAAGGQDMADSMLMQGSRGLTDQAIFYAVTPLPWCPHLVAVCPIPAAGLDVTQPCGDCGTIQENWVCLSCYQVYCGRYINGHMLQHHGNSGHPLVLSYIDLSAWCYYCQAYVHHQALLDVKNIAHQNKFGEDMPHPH
Nature of the assay: Caliper endpoint assay for HDAC enzymatic activity (HDAC6). It is filed as biochemical. Particulars: for IC50: in vitro enzymatic, Caliper endpoint assay, 30 min pre-incubation, 1 μM substrate peptide; for Selectivity (6 v 8): ratio of HDAC8 IC50/HDAC6 IC50.

Another assay concerns the target T2, Full length Human HDAC8 (Homo sapiens, UniProt Q9BY41).
T2 construct: Full length Human HDAC8; HIS (N); host or cells: baculovirus expression system
T2 sequence (Q9BY41 1-377): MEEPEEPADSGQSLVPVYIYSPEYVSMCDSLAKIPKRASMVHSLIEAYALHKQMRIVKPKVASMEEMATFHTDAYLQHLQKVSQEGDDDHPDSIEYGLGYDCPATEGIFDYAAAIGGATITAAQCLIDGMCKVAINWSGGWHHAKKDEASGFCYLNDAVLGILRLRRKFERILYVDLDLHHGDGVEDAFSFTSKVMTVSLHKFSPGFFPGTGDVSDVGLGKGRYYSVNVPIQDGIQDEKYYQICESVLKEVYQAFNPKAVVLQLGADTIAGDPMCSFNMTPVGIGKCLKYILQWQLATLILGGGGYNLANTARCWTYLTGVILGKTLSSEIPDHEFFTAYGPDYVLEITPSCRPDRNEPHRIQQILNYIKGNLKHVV
Nature of the assay: Caliper endpoint assay for HDAC enzymatic activity (HDAC8). It is filed as biochemical. Particulars: in vitro enzymatic, 30 min pre-incubation, 1 μM substrate peptide.

Structures are written as SMILES. Where only a bound is given, the exact number is not on record here.

What is called IC50 is the concentration needed to halve the response being measured. A lower IC50 goes with inhibition by little substance. Regarding `O=C(NO)c1cc(F)c2c(c1)CCN(C1CC3(CCCC3)C1)C2` [Compound 183, 8-fluoro-N-hydroxy-2-(spiro[3.4]octan-2-yl)-1,2,3,4-tetrahydroisoquinoline-6-carboxamide], the IC50 is 0.001 to 0.1 µM against Full length Human HDAC6 and > 100 µM against Full length Human HDAC8. For the same compound, the “Selectivity (6 v 8)” value on Full length Human HDAC6 is “V (V: >1000)”.

On to `CN1C[C@]2(CN3CCc4cc(C(=O)NO)cc(F)c4C3)C[C@H]1CO2` [Compound 475, 8-fluoro-2-[[(1R,4S)-5-methyl-2-oxa-5-azabicyclo[2.2.1]heptan-1-yl]methyl]-3,4-dihydro-1H-isoquinoline-6-carbohydroxamic acid], for which the IC50 on Full length Human HDAC6 was 0.001 to 0.1 µM; at Full length Human HDAC8, 10 to 100 µM. For the same compound, the “Selectivity (6 v 8)” value at Full length Human HDAC6 is “IV (IV: >100-1000)”.

For `CC[C@H]1Cc2c(F)cc(C(=O)NO)cc2CN1CC1CCC2(CCC2)CC1` (single isomer, unassigned) [Compound 528], on Full length Human HDAC6, the IC50 was 0.001 to 0.1 µM and the “Selectivity (6 v 8)” value is listed as “III (III: >10-100)”. The compound also came in with an IC50 at Full length Human HDAC8 of 1 to 10 µM.

In the case of `O=C(NO)c1cc(F)c2c(c1)CCN([C@@H]1CCN(Cc3ccccc3)C3(CCC3)C1)C2` (single isomer, unassigned) [Compound 444], at Full length Human HDAC6, the IC50 was 0.001 to 0.1 µM and the “Selectivity (6 v 8)” value is “IV (IV: >100-1000)”. For the same compound, the IC50 at Full length Human HDAC8 was in the range of 10 to 100 µM.

Turning to `CN1CCC[C@]2(C1)C[C@@H](N1CCc3cc(C(=O)NO)cc(F)c3C1)C2` (single isomer, unassigned) [Compound 343, 8-fluoro-N-hydroxy-2-((2r,4s)-6-methyl-6-azaspiro[3.5]nonan-2-yl)-1,2,3,4-tetrahydroisoquinoline-6-carboxamide], the IC50 against Full length Human HDAC6 is 0.001 to 0.1 µM; against Full length Human HDAC8, 10 to 100 µM. Further, on Full length Human HDAC6, the “Selectivity (6 v 8)” value is “IV (IV: >100-1000)”.

For the compound `CC[C@@H]1Cc2c(F)cc(C(=O)NO)cc2CN1CC1CCC2(CCC2)CC1` (single isomer, unassigned) [Compound 527], on Full length Human HDAC6, the IC50 fell in the range of 0.001 to 0.1 µM and the “Selectivity (6 v 8)” value is on record as “III (III: >10-100)”. Further, at Full length Human HDAC8, the IC50 was in the range of 1 to 10 µM.

Regarding `CC[C@H]1Cc2c(F)cc(C(=O)NO)cc2CN1C1CC2(CCN(C3CC3)CC2)C1` (single isomer, unassigned) [Compound 599], at Full length Human HDAC6, the IC50 was in the range of 0.1 to 1 µM and the “Selectivity (6 v 8)” value is listed as “IV (IV: >100-1000)”. This compound also registered an IC50 on Full length Human HDAC8 of 10 to 100 µM.

Regarding `O=C(NO)c1cc(F)c2c(c1)CCN(CC1CC3(CCN(C4CC4)CC3)C1)C2` [Compound 470, 2-[(7-cyclopropyl-7-azaspiro[3.5]nonan-2-yl)methyl]-8-fluoro-3,4-dihydro-1H-isoquinoline-6-carbohydroxamic acid], on Full length Human HDAC6, the IC50 lay within 0.001 to 0.1 µM and the “Selectivity (6 v 8)” value is listed as “IV (IV: >100-1000)”. Also, the IC50 on Full length Human HDAC8 lay within 10 to 100 µM.

Take `O=C(NO)c1cc(F)c2c(c1)CCN(CC1CC3CCC(C1)N3C1CC1)C2` (stereo not drawn) [Compound 484, 2-[(8-cyclopropyl-8-azabicyclo[3.2.1]octan-3-yl)methyl]-8-fluoro-3,4-dihydro-1H-isoquinoline-6-carbohydroxamic acid]: the IC50 lay in the range of 0.001 to 0.1 µM against Full length Human HDAC6 and 1 to 10 µM against Full length Human HDAC8. Besides, the “Selectivity (6 v 8)” value at Full length Human HDAC6 is recorded as “IV (IV: >100-1000)”.

On to `CC[C@@H]1Cc2c(F)cc(C(=O)NO)cc2CN1C1CC2(C1)CN(C)C2` (single isomer, unassigned) [Compound 584], for which the IC50 on Full length Human HDAC6 lay within 0.1 to 1 µM; at Full length Human HDAC8 it was 10 to 100 µM. Moreover, on Full length Human HDAC6, the “Selectivity (6 v 8)” value is “IV (IV: >100-1000)”.

As to `O=C(NO)c1cc(F)c2c(c1)CCN(C1CCC13CCC3)C2` (stereo not drawn) [Compound 299, 8-fluoro-2-spiro[3.3]heptan-3-yl-3,4-dihydro-1H-isoquinoline-6-carbohydroxamic acid], the IC50 at Full length Human HDAC6 lay within 0.001 to 0.1 µM; on Full length Human HDAC8, 10 to 100 µM. For the same compound, the “Selectivity (6 v 8)” value at Full length Human HDAC6 is recorded as “IV (IV: >100-1000)”.

`O=C(NO)c1cc(F)c2c(c1)CCN(C[C@H]1CCCCO1)C2` (single isomer, unassigned) [Compound 175]: on Full length Human HDAC6, the IC50 fell in the range of 0.001 to 0.1 µM and the “Selectivity (6 v 8)” value is “IV (IV: >100-1000)”. On Full length Human HDAC8, this compound returned an IC50 of 10 to 100 µM.

In the case of `O=C(NO)c1cc(F)c2c(c1)CCN(C1CCC13CCCC3)C2` (stereo not drawn) [Compound 314, 8-fluoro-2-spiro[3.4]octan-3-yl-3,4-dihydro-1H-isoquinoline-6-carbohydroxamic acid], on Full length Human HDAC6, the IC50 was in the range of 0.001 to 0.1 µM and the “Selectivity (6 v 8)” value is given as “IV (IV: >100-1000)”. Further, the half-maximal inhibitory concentration (IC50) at Full length Human HDAC8 was 1 to 10 µM.

With `O=C(NO)c1cc(F)c2c(c1)CN(C[C@@H]1CCCCO1)CC2` (single isomer, unassigned) [Compound 214], on Full length Human HDAC6, the IC50 is 0.001 to 0.1 µM and the “Selectivity (6 v 8)” value is listed as “III (III: >10-100)”. At Full length Human HDAC8, the IC50 lay within 1 to 10 µM.

Consider `O=C(NO)c1cc(F)c2c(c1)C[C@@H]1COCCN1C2` (single isomer, unassigned) [Compound 129], for which the IC50 on Full length Human HDAC6 was 10 to 100 µM; at Full length Human HDAC8, > 100 µM.

`O=C(NO)c1cc(F)c2c(c1)CCN([C@H]1C[C@]3(CCCN(C4CC4)C3)C1)C2` (single isomer, unassigned) [Compound 345, 2-((2r,4s)-6-cyclopropyl-6-azaspiro[3.5]nonan-2-yl)-8-fluoro-N-hydroxy-1,2,3,4-tetrahydroisoquinoline-6-carboxamide]: the IC50 against Full length Human HDAC6 lay within 0.001 to 0.1 µM; at Full length Human HDAC8, 1 to 10 µM. For the same compound, the “Selectivity (6 v 8)” value on Full length Human HDAC6 is reported as “IV (IV: >100-1000)”.

In the case of `CC[C@@H](c1ccccc1)N1CCc2cc(C(=O)NO)cc(F)c2C1` [Compound 31], the IC50 on Full length Human HDAC6 was 0.001 to 0.1 µM; against Full length Human HDAC8, 1 to 10 µM.

Take `O=C(NO)c1cc(F)c2c(c1)CCN(C[C@@H]1CCCCO1)C2` (single isomer, unassigned) [Compound 174]: at Full length Human HDAC6, the IC50 was in the range of 0.001 to 0.1 µM and the “Selectivity (6 v 8)” value is recorded as “IV (IV: >100-1000)”. Also, on Full length Human HDAC8, the IC50 was in the range of 10 to 100 µM.

As to `CC(=O)N1CCC2(CCC(N3CCc4cc(C(=O)NO)cc(F)c4C3)C2)CC1` (stereo not drawn) [Compound 419, 2-(8-acetyl-8-azaspiro[4.5]decan-3-yl)-8-fluoro-3,4-dihydro-1H-isoquinoline-6-carbohydroxamic acid], at Full length Human HDAC6, the IC50 lay within 0.001 to 0.1 µM and the “Selectivity (6 v 8)” value was “IV (IV: >100-1000)”. This compound had an IC50 at Full length Human HDAC8 of 10 to 100 µM.

On to `O=C(NO)c1cc(F)c2c(c1)CCN(C1CC3(CCCO3)C1)C2` (single isomer, unassigned) [Compound 190, 8-fluoro-N-hydroxy-2-(5-oxaspiro[3.4]octan-2-yl)-1,2,3,4-tetrahydroisoquinoline-6-carboxamide], for which, on Full length Human HDAC6, the IC50 fell in the range of 0.001 to 0.1 µM and the “Selectivity (6 v 8)” value is listed as “IV (IV: >100-1000)”. Moreover, at Full length Human HDAC8, the IC50 lay within 1 to 10 µM.

On to `C[C@@H]1C[C@@H]2c3c(F)cc(C(=O)NO)cc3CCN2C1` (single isomer, unassigned) [Compound 151], for which the figures for the IC50 against Full length Human HDAC6 and against Full length Human HDAC8 were 0.001 to 0.1 µM and 1 to 10 µM, respectively.

For the compound `CC[C@@H]1Cc2c(F)cc(C(=O)NO)cc2CN1C[C@]12C[C@H](CO1)N(C)C2` (single isomer, unassigned) [Compound 554], at Full length Human HDAC6, the IC50 lay in the range of 0.001 to 0.1 µM and the “Selectivity (6 v 8)” value was “IV (IV: >100-1000)”. The concentration for half-maximal inhibition (IC50) on Full length Human HDAC8 lay in the range of 1 to 10 µM.

Regarding `O=C(NO)c1cc(F)c2c(c1)CCN(C1CCC3(CC1)COC3)C2` [Compound 425, 8-fluoro-2-(2-oxaspiro[3.5]nonan-7-yl)-3,4-dihydro-1H-isoquinoline-6-carbohydroxamic acid], the IC50 against Full length Human HDAC6 was 0.001 to 0.1 µM; on Full length Human HDAC8, 10 to 100 µM. The “Selectivity (6 v 8)” value on Full length Human HDAC6 was “V (V: >1000)”.

(Values after patent US12655106B2 (Eikonizo Therapeutics, Inc., priority 2021, dated 2026).)
